Experimental data published in patent US20200345049A1, “COMPOSITIONS” (Givaudan, S.A., priority 2017, published 2020).
“Also recorded” adds a separate entry of the source.

How the values were obtained:
[1] = system: sweet sensitive taste panel of five experts (trained flavourists); assay: Taste evaluation of mogroside V / 11-O-mogroside V solutions in 5% (w/v) sucrose and 0.03% (w/v) citric acid; format: in vivo, human; settings: compared to mogroside V alone
Source text: Mogroside V and 11-O-mogroside V were isolated from extracts of Luo Han Guo using Agilent 1100 preparative HPLC system with a Phenomenex Luna C18 (2) column (5 μm, 210×21.4 mm), and combined to form solutions of various concentrations.
These solutions were combined with a solution containing 5% (w/v) sucrose and 0.03% (w/v) citric acid to give test samples and evaluated by a sweet sensitive taste panel of five experts (trained flavourists).

[2] = Sweetness relative to sucrose; format: in vivo
Experimental: The term “sucrose equivalence” refers to the equivalence in sweetness of a composition containing at least one non-sucrose sweetener to a reference sucrose solution. […] Other non-sucrose sweeteners may then be tasted at a series of dilutions to determine the concentration of the non-sucrose sweetener that is as sweet (i.e. isosweet) to a given sucrose reference. The term “isosweet” refers to compositions that have equivalent sweetness. Typically, the sweetness of a given composition is measured with reference to a solution of sucrose. See “A Systematic Study of Concentration-Response Relationships of Sweeteners,” […]. Walters, […]. Booth, […]. Gibes, B. T. Carr, and L. M. Brands, in Sweeteners: Discovery, Molecular Design and Chemoreception, D. E. Walters, F. T. Orthoefer, and G. E. DuBois, Eds., American Chemical Society, Washington, D.C. (1991), pp 261-276.

SMILES: C[C@H](CC[C@@H](O[C@@H]1O[C@H](CO[C@@H]2O[C@H](CO)[C@@H](O)[C@H](O)[C@H]2O)[C@@H](O)[C@H](O)[C@H]1O[C@@H]1O[C@H](CO)[C@@H](O)[C@H](O)[C@H]1O)C(C)(C)O)[C@H]1CC[C@@]2(C)[C@H]3CC=C4[C@@H](CC[C@H](O[C@@H]5O[C@H](CO[C@@H]6O[C@H](CO)[C@@H](O)[C@H](O)[C@H]6O)[C@@H](O)[C@H](O)[C@H]5O)C4(C)C)[C@]3(C)C(=O)C[C@]12C [11-O-mogroside V, 11-O-Mogroside V]
- Effect of blending 11-O-mogroside V with mogroside V on sweet quality [1]: improves the sweet quality compared to mogroside V alone; also recorded: helped to reduce sweetness lingering (weaken later sweetness taste) and reduce astringent and bitter aftertastes compared to mogroside V alone
- Sweetness relative to sucrose ([2]; Example 2 results): 84 times sweeter than sucrose
- Sweetness relative to sucrose ([2]; description): about 84 times the sweetness of sucrose
